Literature values, collected in US20060074100A1, “Histone deacetylase inhibitors for the treatment of ocular neovascular or edematous disorders and diseases” (priority 2002, published 2006).

Key:
[1] = system: corneal neovascularization; conditions: in combination with a beta cyclodextrin
[2] = system: cancer cell
[3] = system: cancer cell; conditions: in vitro
[4] = system: tumors; conditions: animal models
[5] = phase I clinical trials

C[C@]12CCC(=O)C=C1CC[C@@H]1[C@@H]2[C@@H](O)C[C@@]2(C)[C@H]1CC[C@]2(O)C(=O)CO [hydrocortisone]
inhibition of corneal neovascularization [1]: inhibit corneal neovascularization

C[C@]12CC[C@@H](O)C[C@H]1CC[C@@H]1[C@@H]2CC[C@@]2(C)[C@H]1CC[C@]2(O)C(=O)CO [tetrahydrocortisol-S]
inhibition of corneal neovascularization [1]: inhibit corneal neovascularization

O=C(CCCCCCC(=O)Nc1ccccc1)NO [SAHA, suberoylanilide hydroxamic acid]
induction of cancer cell differentiation [2]: potent inducer of cancer cell differentiation | cancer cell growth [3]: arrest cancer cell growth in vitro | tumor size [4]: shrink tumors in animal models | dose-limiting toxicity [5]: almost no dose-limiting toxicity | suppression of white blood cell production [5]: no suppression of white blood cell production

C[C@@H]1C[C@H]2[C@@H]3C[C@H](F)C4=CC(=O)CC[C@]4(C)C3=CC[C@]2(C)[C@@]1(O)C(=O)CO [U-72,745G]
inhibition of corneal neovascularization [1]: inhibit corneal neovascularization
